Test results from patent US20240166649A1, “DIHYDROPYRIMIDINE COMPOUND, PREPARATION METHOD THEREFOR AND APPLICATION THEREOF” (Shanghai Visonpharma Co., Ltd., priority 2021, published 2024).
Like-named read-outs stand apart in the source and are kept apart here.

Tests used:
[1] = tested on: HBV (hepatitis B virus) in HepG2.2.15 cells; experiment: Cell-based anti-viral activity assay (HBV DNA in supernatant by quantitative PCR); conditions: 120 h, anti-HBV activity, HepG2.2.15 cells, 5 days, read-out: EC50 (HepG2.2.15)
Procedure, shortened: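 HepG2.2.15 cells (stably carrying HBV genome) treated with 3.16-fold compound dilutions, final 1% DMSO, for 5 days at 37 °C. Supernatant HBV DNA quantified by qPCR against a standard curve; % inhibition normalised to DMSO and high-concentration reference compound wells.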

[2] = Pharmacokinetics (PK) evaluation in mice; format: in vivo; conditions: ICR mice, po 10 mg/kg; for Kp at 0.5 h / Kp at 1 h / Kp at 3 h / Kp at 5 h / concentration at 0.5 h / concentration at 1 h / concentration at 3 h / concentration at 5 h / AUC(0-t) / Cmax: mouse; for Kp at 0.5 h / Kp at 1 h / Kp at 3 h / Kp at 5 h: liver/plasma, read-out: Liver/Plasma ratio
Protocol: Pharmacokinetics (PK) Evaluation in Mice Test compounds were administered to ICR mice by gavage (po). The po dose was 10 mg/kg, and the vehicle formulation was 10% DMSO+40% PEG400+50% Saline (0.9% saline). Animals were fasted overnight (10-14 h) before administration and fed 4 h after administration. Blood was collected into heparin sodium anticoagulated tubes at multiple time points (0.5, 1, 3, 5 hours) after administration. Mice were euthanized with CO2 and livers were collected at multiple time points (0.5, 1, 3,5 h). The drug concentrations in plasma and liver were analyzed by LC-MS/MS method. Phenix WinNonlin was used to calculate the pharmacokinetic parameters.

[3] = Cytotoxicity assay (CellTiter Glo); format: cell-based; conditions: human; HepG2.2.15 cells, five days post treatment
Protocol: The Invention Determined Cytotoxicity of the Compounds Against HepG2.2.15 Cells (Table 2)
HepG2.2.15 cells were seeded into 96-well plates (8000 cells per well) and cell viability was measured by the addition of 60 μL of CellTiter Glo reagent (Promega) five days post treatment with the compounds. Cell plates with CellTiter Glo added were shaken on a plate shaker for 20 min and then the chemiluminescence signal was stabilized at room temperature for 10 min. Chemiluminescence values were read using a microplate reader (Bio-TeK SYNERGY NEO2).
The concentration corresponding to 50% cytotoxicity (CC50) was fitted by graphpad prism software. The cytotoxicity was calculated by the formula: % Cytotoxicity=100−(chemiluminescence value of sample Well −average chemiluminescence value of blank medium column)/(average chemiluminescence value of DMSO column −average chemiluminescence value of blank medium column)*100

[4] = liver, read-out: Liver drug conc.
[5] = plasma, read-out: Plasm drug conc.

What does the source list for `CCOC(=O)C1=C(CN2CCN3C(=O)N(C45CC(CC(=O)O)(C4)C5)C[C@@H]3C2)NC(c2nccs2)=N[C@H]1c1cccc(F)c1C` [Compound 22, 2-(3-((S)-7-(((S)-5-(Ethoxycarbonyl)-6-(3-Fluoro-2-Methylphenyl)-2-(Thiazol-2-Yl)-3,6-Dihydropyrimidin-4-Yl)Methyl)-3-Oxohexahydroimidazo[1,5-a]Pyrazin-2(3H)-Yl)Bicyclo[1.1.1]Pentan-1-Yl)Acetic Acid]?
EC50 [1]: 7 nM; Liver AUC(0→t) [2]: 231116 ng·h/g; Liver Cmax [2]: 102141 ng/g; Kp at 0.5 h [2]: 120; Kp at 1 h [2]: 115; Kp at 3 h [2]: 137; Kp at 5 h [2]: 297; concentration at 0.5 h [2, 4]: 102000 ng/g; concentration at 1 h [2, 4]: 94800 ng/g; concentration at 3 h [2, 4]: 24700 ng/g; concentration at 5 h [2, 4]: 12200 ng/g; AUC(0-t) ([2]; plasma): 1860 ng·h/mL; Cmax ([2]; plasma): 849 ng/mL; concentration at 0.5 h [2, 5]: 849 ng/mL; concentration at 1 h [2, 5]: 826 ng/mL; concentration at 3 h [2, 5]: 180 ng/mL; concentration at 5 h [2, 5]: 41 ng/mL; CC50 at 5 days [3]: > 50000 nM

What does the source list for `CCOC(=O)C1=C(CN2CCN3C(=O)N(C45CC(COC)(C4)C5)C[C@@H]3[C@@H]2C(=O)O)NC(c2nccs2)=N[C@H]1c1cccc(F)c1C` [Compound 48, (8R,8aR)-7-(((S)-5-(Ethoxycarbonyl)-6-(3-Fluoro-2-Methylphenyl)-2-(Thiazol-2-Yl)-3,6-Dihydropyrimidin-4-Yl)Methyl)-2-(3-(Methoxymethyl)Bicyclo[1.1.1]Pentan-1-Yl)-3-Oxooctahydroimidazo[1,5-a]Pyrazine-8-Carboxylic Acid]?
EC50 [1]: 15 nM; CC50 at 5 days [3]: > 50000 nM

Which results are given for `CCOC(=O)C1=C(CN2CCN3C(=O)N(C45CC(N(C)CC(=O)O)(C4)C5)C[C@@H]3C2)NC(c2nccs2)=N[C@H]1c1cccc(F)c1C` [Compound 49, N-(3-((S)-7-(((S)-5-(Ethoxycarbonyl)-6-(3-Fluoro-2-Methylphenyl)-2-(Thiazol-2-Yl)-3,6-Dihydropyrimidin-4-Yl)Methyl)-3-Oxohexahydroimidazo[1,5-a]Pyrazin-2(3H)-Yl)Bicyclo[1.1.1]Pentan-1-Yl)-N-Methylglycine]?
EC50 [1]: 17 nM; CC50 at 5 days [3]: > 50000 nM

What does the source list for `CCOC(=O)C1=C(CN2CCN3C(=O)N(C45CCC(C(=O)O)(CC4)CC5)C[C@@H]3C2)NC(c2nccs2)=N[C@H]1c1cccc(F)c1C` [Compound 52, 4-((S)-7-(((S)-5-(Ethoxycarbonyl)-6-(3-Fluoro-2-Methylphenyl)-2-(Thiazol-2-Yl)-3,6-Dihydropyrimidin-4-Yl)Methyl)-3-Oxohexahydroimidazo[1,5-a]Pyrazin-2(3H)-Yl)Bicyclo[2.2.2]Octane-1-Carboxylic Acid]?
EC50 [1]: 3 nM; CC50 at 5 days [3]: > 50000 nM

With `CCOC(=O)C1=C(CN2CCN3C(=O)N(C45CCC(C(=O)O)(CC4)CC5)C[C@@H]3C2)NC(c2nccs2)=N[C@H]1c1ccc(F)cc1C` [Compound 53, 4-((S)-7-(((S)-5-(Ethoxycarbonyl)-6-(4-Fluoro-2-Methylphenyl)-2-(Thiazol-2-Yl)-3,6-Dihydropyrimidin-4-Yl)Methyl)-3-Oxohexahydroimidazo[1,5-a]Pyrazin-2(3H)-Yl)Bicyclo[2.2.2]Octane-1-Carboxylic Acid] as the compound, how does the EC50 [1] read?
Its EC50 is 9 nM.

What about the CC50 at 5 days [3] of the same compound?
The CC50 at 5 days was > 50000 nM.

With `CCOC(=O)C1=C(CN2CCN3C(=O)N(C45CCC(C(=O)O)(CC4)CC5)C[C@@H]3C2)NC(c2nccs2)=N[C@H]1c1ccc(F)cc1Cl` [Compound 55, 4-((S)-7-(((R)-6-(2-Chloro-4-Fluorophenyl)-5-(Ethoxycarbonyl)-2-(Thiazol-2-Yl)-3,6-Dihydropyrimidin-4-Yl)Methyl)-3-Oxohexahydroimidazo[1,5-a]Pyrazin-2(3H)-Yl)Bicyclo[2.2.2]Octane-1-Carboxylic Acid] as the compound, how does the EC50 [1] read?
The EC50 was 2 nM.

And the CC50 at 5 days [3]?
Its CC50 at 5 days is > 50000 nM.

What does the source list for `CCOC(=O)C1=C(CN2CCN3C(=O)N(C45CCC(C(=O)O)(C4)C5)C[C@@H]3C2)NC(c2nccs2)=N[C@H]1c1cccc(F)c1C` [Compound 56, 4-((S)-7-(((S)-5-(Ethoxycarbonyl)-6-(3-Fluoro-2-Methylphenyl)-2-(Thiazol-2-Yl)-3,6-Dihydropyrimidin-4-Yl)Methyl)-3-Oxohexahydroimidazo[1,5-a]Pyrazin-2(3H)-Yl)Bicyclo[2.1.1]Hexane-1-Carboxylic Acid]?
EC50 [1]: 16 nM; CC50 at 5 days [3]: > 50000 nM

With `CCOC(=O)C1=C(CN2CCN3C(=O)N(C45CCC(C(=O)O)(C4)C5)C[C@@H]3C2)NC(c2nccs2)=N[C@H]1c1ccc(F)cc1Cl` [Compound 57, 4-((S)-7-(((R)-6-(2-Chloro-4-Fluorophenyl)-5-(Ethoxycarbonyl)-2-(Thiazol-2-Yl)-3,6-Dihydropyrimidin-4-Yl)Methyl)-3-Oxohexahydroimidazo[1,5-a]Pyrazin-2(3H)-Yl)Bicyclo[2.1.1]Hexane-1-Carboxylic Acid] as the compound, how does the EC50 [1] read?
The EC50 was 12 nM.

What about the CC50 at 5 days [3] of the same compound?
Its CC50 at 5 days is > 50000 nM.

With `CCOC(=O)C1=C(CN2CCN3C(=O)N(C45CCC(CC(=O)O)(C4)C5)C[C@@H]3C2)NC(c2nccs2)=N[C@H]1c1cccc(F)c1C` [Compound 58, 2-(4-((S)-7-(((S)-5-(Ethoxycarbonyl)-6-(3-Fluoro-2-Methylphenyl)-2-(Thiazol-2-Yl)-3,6-Dihydropyrimidin-4-Yl)Methyl)-3-Oxohexahydroimidazo[1,5-a]Pyrazin-2(3H)-Yl)Bicyclo[2.1.1]Hexan-1-Yl)Acetic Acid] as the compound, how does the EC50 [1] read?
The EC50 was 6 nM.

And the “Liver AUC(0→t)” value [2]?
The value was 175730 ng·h/g.

And the “Liver Cmax” value [2]?
The value was 62519 ng/g.

And the Kp at 0.5 h [2]?
The Kp at 0.5 h was 31.

What about the Kp at 1 h [2] of the same compound?
Its Kp at 1 h is 40.

And the Kp at 3 h [2]?
Its Kp at 3 h is 57.

What about the Kp at 5 h [2] of the same compound?
The Kp at 5 h was 44.

And the concentration at 0.5 h [2, 4]?
Its concentration at 0.5 h is 62500 ng/g.

And the concentration at 1 h [2, 4]?
Its concentration at 1 h is 61300 ng/g.

What about the concentration at 3 h [2, 4] of the same compound?
Its concentration at 3 h is 26800 ng/g.

What about the concentration at 5 h [2, 4] of the same compound?
The concentration at 5 h was 14200 ng/g.

What about the AUC(0-t) ([2]; plasma) of the same compound?
Its AUC(0-t) is 4210 ng·h/mL.

What about the Cmax ([2]; plasma) of the same compound?
The Cmax was 2030 ng/mL.

And the concentration at 0.5 h [2, 5]?
Its concentration at 0.5 h is 2030 ng/mL.

And the concentration at 1 h [2, 5]?
Its concentration at 1 h is 1540 ng/mL.

What about the concentration at 3 h [2, 5] of the same compound?
The concentration at 3 h was 470 ng/mL.

And the concentration at 5 h [2, 5]?
The concentration at 5 h was 324 ng/mL.

And the CC50 at 5 days [3]?
Its CC50 at 5 days is > 50000 nM.

What does the source list for `CCOC(=O)C1=C(CN2CCN3C(=O)N(C45CCC(C(=O)O)(CC4)C5)C[C@@H]3C2)NC(c2nccs2)=N[C@H]1c1cccc(F)c1C` [Compound 59, 4-((S)-7-(((S)-5-(Ethoxycarbonyl)-6-(3-Fluoro-2-Methylphenyl)-2-(Thiazol-2-Yl)-3,6-Dihydropyrimidin-4-Yl)Methyl)-3-Oxohexahydroimidazo[1,5-a]Pyrazin-2(3H)-Yl)Bicyclo[2.2.1]Heptane-1-Carboxylic Acid]?
EC50 [1]: 12 nM; CC50 at 5 days [3]: > 50000 nM

For `CCOC(=O)C1=C(CN2CCN3C(=O)N(C45CCC(C(=O)O)(CC4)C5)C[C@@H]3C2)NC(c2nccs2)=N[C@H]1c1ccc(F)cc1Cl` [Compound 60, 4-((S)-7-(((R)-6-(2-Chloro-4-Fluorophenyl)-5-(Ethoxycarbonyl)-2-(Thiazol-2-Yl)-3,6-Dihydropyrimidin-4-Yl)Methyl)-3-Oxohexahydroimidazo[1,5-a]Pyrazin-2(3H)-Yl)Bicyclo[2.2.1]Heptane-1-Carboxylic Acid], which EC50 [1] is on record?
Its EC50 is 9 nM.

And the CC50 at 5 days [3]?
The CC50 at 5 days was > 50000 nM.

Which results are given for `CCOC(=O)C1=C(CN2CCN3C(=O)N(C45C6C7C4C4C5C6C74C(=O)O)C[C@@H]3C2)NC(c2nccs2)=N[C@H]1c1cccc(F)c1C` (some centres unmarked) [Compound 61]?
EC50 [1]: 17 nM; CC50 at 5 days [3]: > 50000 nM
